Assay results as given in ChEMBL document CHEMBL1201862, “PubChem BioAssay data set” (2004).
Activity calls are given as the source filed them.

Columns and labels:
[1] = target: 1-phosphatidylinositol 4,5-bisphosphate phosphodiesterase gamma-1 (Homo sapiens, UniProt P19174); experiment: Counterscreen for inhibitors of phospholipase C isozymes (PLC-B3): Fluorescence-based biochemical high throughput dose response assay to identify inhibitors of phospholipase C isozymes (PLC-gamma1).
[2] = target: 1-phosphatidylinositol 4,5-bisphosphate phosphodiesterase beta-3 (Homo sapiens, UniProt Q01970); experiment: Fluorescence-based biochemical high throughput dose response assay to identify inhibitors of phospholipase C isozymes (PLC-B3).
Chain of 1-phosphatidylinositol 4,5-bisphosphate phosphodiesterase beta-3 (Q01970 whole entry): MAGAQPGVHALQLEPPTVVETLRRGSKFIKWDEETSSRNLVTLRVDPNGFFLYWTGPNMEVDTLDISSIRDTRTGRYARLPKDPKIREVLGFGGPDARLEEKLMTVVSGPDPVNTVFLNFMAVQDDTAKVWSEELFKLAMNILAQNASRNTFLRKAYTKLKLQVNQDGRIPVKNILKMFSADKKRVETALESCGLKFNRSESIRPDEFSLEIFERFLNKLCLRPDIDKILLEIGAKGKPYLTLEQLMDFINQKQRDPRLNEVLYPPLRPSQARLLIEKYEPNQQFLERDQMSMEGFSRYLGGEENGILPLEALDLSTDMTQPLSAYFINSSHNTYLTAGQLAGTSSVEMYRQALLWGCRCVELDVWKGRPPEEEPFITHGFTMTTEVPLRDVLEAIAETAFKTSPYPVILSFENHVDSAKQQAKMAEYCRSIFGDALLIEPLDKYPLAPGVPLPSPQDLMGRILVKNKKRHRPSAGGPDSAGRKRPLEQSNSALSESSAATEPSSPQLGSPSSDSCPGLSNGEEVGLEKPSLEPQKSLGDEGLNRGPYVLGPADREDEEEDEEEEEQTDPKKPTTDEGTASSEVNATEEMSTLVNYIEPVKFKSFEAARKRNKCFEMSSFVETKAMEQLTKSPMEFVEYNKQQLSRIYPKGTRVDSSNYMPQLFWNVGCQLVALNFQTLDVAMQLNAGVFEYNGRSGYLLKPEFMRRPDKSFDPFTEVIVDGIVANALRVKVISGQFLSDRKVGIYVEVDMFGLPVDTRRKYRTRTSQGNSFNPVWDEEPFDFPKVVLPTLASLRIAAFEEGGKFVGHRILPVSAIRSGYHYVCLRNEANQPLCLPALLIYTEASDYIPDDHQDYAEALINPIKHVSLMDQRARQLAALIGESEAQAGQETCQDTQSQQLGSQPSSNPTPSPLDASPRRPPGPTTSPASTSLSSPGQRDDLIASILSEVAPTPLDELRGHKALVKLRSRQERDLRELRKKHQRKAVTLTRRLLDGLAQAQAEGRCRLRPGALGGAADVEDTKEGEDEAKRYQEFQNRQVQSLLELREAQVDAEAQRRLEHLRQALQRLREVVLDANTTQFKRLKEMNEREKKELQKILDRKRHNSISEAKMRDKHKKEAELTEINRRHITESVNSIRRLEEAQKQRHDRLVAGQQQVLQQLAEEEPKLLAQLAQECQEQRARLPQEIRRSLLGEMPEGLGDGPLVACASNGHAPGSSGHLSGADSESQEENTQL

[3] = target: T1, High affinity choline transporter 1 (Homo sapiens, UniProt Q9GZV3); experiment: CHT inhibitors, dose response, cell-based, 5-point CRC, membrane potential dye (AID 504840); assay type: functional
T1 sequence (Q9GZV3 whole entry): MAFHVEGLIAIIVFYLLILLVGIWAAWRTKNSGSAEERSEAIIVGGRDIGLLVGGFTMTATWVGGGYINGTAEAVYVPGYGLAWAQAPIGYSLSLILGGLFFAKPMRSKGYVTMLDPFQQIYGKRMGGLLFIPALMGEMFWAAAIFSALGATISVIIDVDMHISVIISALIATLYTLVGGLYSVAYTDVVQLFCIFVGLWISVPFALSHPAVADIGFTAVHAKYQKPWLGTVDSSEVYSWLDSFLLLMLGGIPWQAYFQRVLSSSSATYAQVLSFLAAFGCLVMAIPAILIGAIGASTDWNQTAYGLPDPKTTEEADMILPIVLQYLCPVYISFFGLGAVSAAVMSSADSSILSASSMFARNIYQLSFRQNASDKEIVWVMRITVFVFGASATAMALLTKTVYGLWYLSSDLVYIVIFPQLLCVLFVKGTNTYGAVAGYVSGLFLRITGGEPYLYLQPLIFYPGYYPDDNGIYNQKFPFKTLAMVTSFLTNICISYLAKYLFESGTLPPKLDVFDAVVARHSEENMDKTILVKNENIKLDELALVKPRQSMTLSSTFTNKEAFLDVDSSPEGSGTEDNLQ

cells [4] = assay type: functional, cell-based
[5] = target: T2, Nuclear receptor subfamily 0 group B member 1 (Homo sapiens, UniProt P51843); assay type: functional, cell-based;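 also: HEK293T cells transfected with SF-1 and DAX-1 plus StAR promoter luciferase reporter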
T2 sequence (P51843 whole entry): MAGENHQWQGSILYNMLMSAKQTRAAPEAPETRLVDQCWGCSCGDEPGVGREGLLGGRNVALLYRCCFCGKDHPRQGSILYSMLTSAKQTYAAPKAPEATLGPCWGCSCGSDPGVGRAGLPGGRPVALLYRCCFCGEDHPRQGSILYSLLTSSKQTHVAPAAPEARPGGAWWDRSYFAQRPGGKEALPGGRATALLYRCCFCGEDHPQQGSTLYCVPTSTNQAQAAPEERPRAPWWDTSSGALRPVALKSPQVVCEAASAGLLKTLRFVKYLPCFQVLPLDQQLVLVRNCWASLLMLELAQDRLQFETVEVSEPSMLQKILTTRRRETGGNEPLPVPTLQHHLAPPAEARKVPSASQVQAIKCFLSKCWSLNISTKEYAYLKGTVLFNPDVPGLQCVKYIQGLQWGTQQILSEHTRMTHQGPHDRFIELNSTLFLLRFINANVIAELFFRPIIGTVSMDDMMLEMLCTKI

[6] = HepG2 cell cytotoxicity, dose response, cytotoxicity control, ATP luminescence, cherry-pick, activator set 2 (AID 1053143); assay type: functional, cell-based
cells [7] = assay type: functional, cell-based; remark: listed apart in the source
cells [8] = assay type: functional, cell-based; remark: listed apart in the source
[9] = target: Disintegrin and metalloproteinase domain-containing protein 17 (Homo sapiens, UniProt P78536); experiment: exosite inhibitors of ADAM17, dose response, biochemical (AID 743260)
Chain of Disintegrin and metalloproteinase domain-containing protein 17 (P78536 whole entry, the tested form may be a part): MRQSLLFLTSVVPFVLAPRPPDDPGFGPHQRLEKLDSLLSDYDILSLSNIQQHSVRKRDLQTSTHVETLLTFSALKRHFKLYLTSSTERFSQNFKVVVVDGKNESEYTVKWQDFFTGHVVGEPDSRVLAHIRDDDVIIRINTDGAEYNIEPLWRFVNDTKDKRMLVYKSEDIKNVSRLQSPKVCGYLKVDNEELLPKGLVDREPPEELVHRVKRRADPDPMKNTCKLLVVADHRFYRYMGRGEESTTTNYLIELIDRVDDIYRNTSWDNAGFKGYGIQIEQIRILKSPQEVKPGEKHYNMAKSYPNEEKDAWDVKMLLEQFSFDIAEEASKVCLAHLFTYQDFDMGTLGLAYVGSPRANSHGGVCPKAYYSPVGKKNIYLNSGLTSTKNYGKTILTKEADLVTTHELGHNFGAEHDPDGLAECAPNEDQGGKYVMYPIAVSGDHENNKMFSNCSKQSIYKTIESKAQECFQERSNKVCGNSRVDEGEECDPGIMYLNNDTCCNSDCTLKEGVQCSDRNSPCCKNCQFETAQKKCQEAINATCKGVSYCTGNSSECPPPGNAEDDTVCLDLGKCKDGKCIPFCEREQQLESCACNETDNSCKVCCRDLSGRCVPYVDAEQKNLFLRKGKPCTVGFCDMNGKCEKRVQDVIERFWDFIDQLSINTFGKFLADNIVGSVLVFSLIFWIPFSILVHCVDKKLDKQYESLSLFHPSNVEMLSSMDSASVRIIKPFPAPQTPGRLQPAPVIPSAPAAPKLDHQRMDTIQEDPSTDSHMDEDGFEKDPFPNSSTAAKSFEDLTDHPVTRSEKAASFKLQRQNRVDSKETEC

[10] = ADAM10 protease inhibitors, dose response, selectivity assay for ADAM17 exosite inhibitor project, biochemical, FRET peptide substrate, recombinant human ADAM10 (AID 743259);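 also: ADAM10 enzyme cleaving a FRET peptide substrate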
[11] = MITF Orthogonal Assay: SK-MEL-5 CTG Assay Measured in Cell-Based System Using Plate Reader - 2084-02_Inhibitor_Dose_DryPowder_Activity_Set7.; assay type: functional
[12] = MITF: Counter assay: A375 proliferation Measured in Cell-Based System Using Plate Reader - 2084-03_Inhibitor_Dose_DryPowder_Activity_Set8.; assay type: functional; conditions: A-375
[13] = TRPM1 promoter luciferase reporter signal decrease, dose response, MITF inhibitor project, cell-based, SK-MEL-5, dry powder, set 8 (AID 624430); assay type: functional
[14] = T. cruzi growth inhibition in host cells, dose response, cell-based, plate reader, dry powder, set 2 (AID 652275); assay type: functional

Chain of 1-phosphatidylinositol 4,5-bisphosphate phosphodiesterase gamma-1 (P19174 whole entry): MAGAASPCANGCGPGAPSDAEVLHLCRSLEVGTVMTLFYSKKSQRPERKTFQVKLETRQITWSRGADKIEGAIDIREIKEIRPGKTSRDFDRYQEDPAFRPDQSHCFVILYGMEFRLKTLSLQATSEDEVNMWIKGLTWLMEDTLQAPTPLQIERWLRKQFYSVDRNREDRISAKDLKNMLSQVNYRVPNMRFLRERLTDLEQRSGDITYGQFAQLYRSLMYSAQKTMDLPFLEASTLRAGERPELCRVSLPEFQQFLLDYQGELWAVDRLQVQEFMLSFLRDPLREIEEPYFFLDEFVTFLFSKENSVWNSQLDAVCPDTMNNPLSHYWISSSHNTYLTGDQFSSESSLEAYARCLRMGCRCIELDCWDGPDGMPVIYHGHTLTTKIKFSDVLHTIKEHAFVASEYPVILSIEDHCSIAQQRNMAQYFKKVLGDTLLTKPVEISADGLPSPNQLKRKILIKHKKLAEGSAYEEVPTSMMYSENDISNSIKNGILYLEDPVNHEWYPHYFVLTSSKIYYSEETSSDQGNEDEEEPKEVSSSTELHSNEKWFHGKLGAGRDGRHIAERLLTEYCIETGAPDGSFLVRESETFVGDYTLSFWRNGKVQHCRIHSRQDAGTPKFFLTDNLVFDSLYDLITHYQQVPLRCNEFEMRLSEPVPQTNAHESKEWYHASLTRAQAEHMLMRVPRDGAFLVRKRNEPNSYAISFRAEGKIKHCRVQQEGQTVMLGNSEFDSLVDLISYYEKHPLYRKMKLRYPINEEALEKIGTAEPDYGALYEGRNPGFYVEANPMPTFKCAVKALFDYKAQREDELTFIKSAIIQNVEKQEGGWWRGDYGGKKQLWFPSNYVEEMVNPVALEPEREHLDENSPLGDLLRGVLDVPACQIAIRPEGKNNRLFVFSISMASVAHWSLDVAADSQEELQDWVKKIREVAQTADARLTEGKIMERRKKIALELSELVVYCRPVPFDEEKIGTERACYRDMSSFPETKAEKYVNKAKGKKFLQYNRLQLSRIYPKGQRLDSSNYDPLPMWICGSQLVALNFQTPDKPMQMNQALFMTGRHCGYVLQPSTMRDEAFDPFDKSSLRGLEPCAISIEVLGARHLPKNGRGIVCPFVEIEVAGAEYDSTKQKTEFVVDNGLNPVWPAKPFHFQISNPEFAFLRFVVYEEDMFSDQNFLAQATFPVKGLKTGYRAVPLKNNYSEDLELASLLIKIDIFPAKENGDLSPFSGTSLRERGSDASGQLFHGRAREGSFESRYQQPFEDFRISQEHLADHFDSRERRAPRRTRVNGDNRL

SMILES: COC(=O)C1CCCN1C(=O)COc1ccc(Br)cc1Cl (stereo not given)
- IC50 [1]: > 122 µM (inactive)
- IC50 [2]: > 122 µM (inactive)

SMILES: COc1ccccc1Nc1nnc(SCC2CCCCO2)s1 (stereo not given)
- IC50 [3]: 4.17 µM (active)
- IC50 (cells [4]): > 67.5 µM (inactive)
- IC50 [5]: > 0.834 µM (active)

SMILES: NC(=O)c1ccc(NC(=O)C#Cc2ccccc2)cc1
- AC50 [6]: 26 µM (active)

SMILES: COc1ccc2nc(NC(=O)c3cccs3)sc2c1
- EC50 (cells [7]): > 350 µM (not active)
- EC50 (cells [8]): 7.18 µM (active)
- AC50 [6]: 26 µM (active)

SMILES: CC(C)c1cccc(-c2csc(C(O)c3cccc(Cl)c3)n2)c1 (stereo not given)
- IC50 [9]: > 69.5 µM (inactive)
- IC50 [10]: 42.8 µM (inactive)

SMILES: CC(C)N1CCN(C2=C(Nc3ccc(Cl)c(Cl)c3)C(=O)c3ccccc3C2=O)CC1
- AC50 [11]: 8.71 µM (active)
- AC50 [12]: 19.4 µM (active)
- AC50 [13]: 3.21 µM (active)

SMILES: CN(C)C(=O)c1cccc(-c2ccc([C@H]3[C@@H](CO)N4CCCCN(C(=O)C5CCC5)C[C@H]34)cc2)c1
- AC50 [14]: 1.29 µM (active)
